Assay [1] deals with MET (human) (UniProt P08581). As to the kind of experiment: Caliper, Mobility shift assay off-chip.
Assay [2] has as its target MET (human) (UniProt P08581). As to the kind of experiment: TR FRET. Background: Time-resolved FRET reads energy transfer from a long-lived donor to a nearby acceptor.
The test system of assay [3] is EGFR (human), P00533 [T790M/L858R]. As to the kind of experiment: Caliper, Mobility shift assay off-chip.
For assay [4], the system named is KIT (human), P10721 [T670I]. In words: Caliper, Mobility shift assay off-chip.
Assay [5] concerns the target MERTK (human) (UniProt Q12866). As to the kind of experiment: Caliper, Mobility shift assay off-chip.
Assay [6] concerns the target PASK (human) (UniProt Q96RG2). In words: Caliper, Mobility shift assay off-chip.
Assay [7] has as its target YES1 (human) (UniProt P07947). As to the kind of experiment: Caliper, Mobility shift assay off-chip.
For assay [8], the target named is ROCK1 (human) (UniProt Q13464). As to the kind of experiment: Caliper, Mobility shift assay off-chip.
Assay [9] deals with MET (human), P08581 [M1250T]. As to the kind of experiment: Caliper, Mobility shift assay off-chip.
In assay [10] the target is NEK6 (human) (UniProt Q9HC98). As to the kind of experiment: radiometric filter-binding kinase assay, Kinaseprofiler. The settings on record: compound 1.0 µM; ATP 45 µM.
Assay [11] addresses RPS6KA3 KD1 KD2 (human) (UniProt P51812). The description is as above. The conditions noted are these: compound 1.0 µM; ATP 10 µM.
Assay [12] has as its target PRKCI (human) (UniProt P41743). The assay is described as above. The settings on record: compound 1.0 µM; ATP 155 µM.
The target in assay [13] is INSR (human) (UniProt P06213). The assay is described as above. The settings on record: compound 1.0 µM; ATP 200 µM.
Assay [14] concerns the target MAPK12 (human) (UniProt P53778). The assay is described as above. The settings on record: compound 1.0 µM; ATP 15 µM.
For assay [15], the target named is EPHA2 (human) (UniProt P29317). Described as above. The conditions noted are these: compound 1.0 µM; ATP 155 µM.
For assay [16], the target named is PKN2 (human) (UniProt Q16513). Described as above. The conditions noted are these: compound 1.0 µM; ATP 15 µM.
Assay [17] concerns the target DMPK (human) (UniProt Q09013). Described as above. The conditions noted are these: compound 1.0 µM; ATP 10 µM.
Assay [18] addresses PDGFRB (human) (UniProt P09619). The description is as above. The settings on record: compound 1.0 µM; ATP 200 µM.
In assay [19] the target is CSNK2A2 (human) (UniProt P19784). The description is as above. The conditions noted are these: compound 1.0 µM; ATP 10 µM.
The target of assay [20] is EGFR (human) (UniProt P00533). The description is as above. The conditions noted are these: compound 1.0 µM; ATP 10 µM.
Assay [21] addresses SGK3 (human) (UniProt Q96BR1). The assay is described as above. The settings on record: compound 1.0 µM; ATP 155 µM.
Assay [22] concerns the target EPHA8 (human) (UniProt P29322). The assay is described as above. The conditions noted are these: compound 1.0 µM; ATP 200 µM.
Assay [23] addresses FRK (human) (UniProt P42685). The description is as above. The settings on record: compound 1.0 µM; ATP 155 µM.
The test system of assay [24] is MAPKAPK5 (human), Q8IW41 [R291E]. The assay is described as above. The conditions noted are these: compound 1.0 µM; ATP 15 µM.
Assay [25] concerns EGFR (human), P00533 [L861Q]. The description is as above. The conditions noted are these: compound 1.0 µM; ATP 10 µM.
The target of assay [26] is NEK3 (human) (UniProt P51956). Described as above. The settings on record: compound 1.0 µM; ATP 120 µM.
Assay [27] has as its target CDC42BPA (human) (UniProt Q5VT25). Described as above. The settings on record: compound 1.0 µM; ATP 45 µM.
In assay [28] the target is EPHA5 (human) (UniProt P54756). Described as above. The conditions noted are these: compound 1.0 µM; ATP 10 µM.
In assay [29] the target is CDK9 CCNT1 (human) (UniProt P50750+O60563). The assay is described as above. The conditions noted are these: compound 1.0 µM; ATP 45 µM.
Assay [30] concerns the target FLT3 (human) (UniProt P36888). The description is as above. The settings on record: compound 1.0 µM; ATP 200 µM.
Assay [31] addresses FYN (human) (UniProt P06241). The assay is described as above. The conditions noted are these: compound 1.0 µM; ATP 70 µM.
In assay [32] the target is CAMK1 (human) (UniProt Q14012). Described as above. The settings on record: compound 1.0 µM; ATP 200 µM.
In assay [33] the test system is BRSK2 (human), Q8IWQ3 [S251I]. Described as above. The settings on record: compound 1.0 µM; ATP 70 µM.
In assay [34] the target is FES (human) (UniProt P07332). Described as above. The conditions noted are these: compound 1.0 µM; ATP 45 µM.
For assay [35], the target named is EPHA4 (human) (UniProt P54764). The description is as above. The conditions noted are these: compound 1.0 µM; ATP 15 µM.
Assay [36] relates to AXL (human), P30530 [Q764R]. Described as above. The settings on record: compound 1.0 µM; ATP 90 µM.
Assay [37] deals with AURKA (human), O14965 [I31F]. The description is as above. The conditions noted are these: compound 1.0 µM; ATP 15 µM.

A word on the inhibition: it is the drop in the measured response relative to a control, in per cent. As a reminder, the pIC50 is the negative decadic logarithm of the IC50, by convention in mol/L. A word on the residual activity: it is the signal under treatment as a percentage of the control signal.

Structures are written as SMILES. pIC50: −log10 of the molar value.

As for `O=c1c2cc(CS(=O)(=O)NCc3ccccn3)ccc2ccc2ncc(C3CCNCC3)cc12`, the results for the inhibition in assay [1] (compound 0.01 µM) and in assay [1] (compound 0.1 µM) were 94.7% and 99.3%, respectively. The compound also showed a pIC50 in assay [2] of 9.00.

For `Cn1cc(-c2cnc3ccc4ccc(CS(=O)(=O)NC5CCCCC5)cc4c(=O)c3c2)cn1`, the inhibition in assay [3] (compound 0.01 µM) is 1.8%; in assay [3] (compound 0.1 µM), -0.4%; in assay [4] (compound 0.01 µM), 1.3%; in [4] (compound 0.1 µM), -4.9%; in assay [5] (compound 0.01 µM), 11%; in [5] (compound 0.1 µM), 9.5%. In addition, the inhibition in assay [6] (compound 0.01 µM) is 1.5%; in assay [6] (compound 0.1 µM), 18.4%; in assay [7] (compound 0.01 µM), -1.4%; in assay [7] (compound 0.1 µM), -1.7%; in assay [8] (compound 0.01 µM), 3.1%; in assay [8] (compound 0.1 µM), 4%.

As for `O=C(CCc1ccc2ccc3ncc(C4CCNCC4)cc3c(=O)c2c1)NCc1ccccn1`, the inhibition is -0.8% in [3] (compound 0.1 µM); -3.6% in assay [3] (compound 1.0 µM); -3.3% in [4] (compound 0.1 µM); -4.9% in [4] (compound 1.0 µM); 2.5% in [5] (compound 0.1 µM); 15.5% in assay [5] (compound 1.0 µM). Moreover, the inhibition in assay [9] (compound 0.1 µM) came out at 87%; in assay [9] (compound 1.0 µM), 98.4%; in assay [1] (compound 0.1 µM) it was 74.1%; in [1] (compound 1.0 µM), 95.7%; in [6] (compound 0.1 µM) it was 6.7%; in [6] (compound 1.0 µM) it was 3.2%. Moreover, the inhibition in assay [7] (compound 0.1 µM) was -0.7%; in [7] (compound 1.0 µM), -5.3%; in assay [8] (compound 0.1 µM) it was 4.2%; in [8] (compound 1.0 µM), 8.2%. Besides, the pIC50 in assay [2] was 7.07.

As to `CN(c1ccc2ccc3ncc(-c4cnn(C)c4)cc3c(=O)c2c1)S(=O)(=O)NCc1ccccn1`, the inhibition is 6.2% in assay [3] (compound 0.1 µM); 2.9% in [3] (compound 1.0 µM); 0.2% in [4] (compound 0.1 µM); 21.4% in [4] (compound 1.0 µM); 52.7% in [5] (compound 0.1 µM); 94.5% in [5] (compound 1.0 µM). Further, the inhibition was -10.1% in assay [6] (compound 0.1 µM); 5.9% in [6] (compound 1.0 µM); -7.2% in [7] (compound 0.1 µM); 29.9% in assay [7] (compound 1.0 µM); 14.4% in assay [8] (compound 0.1 µM); 1.7% in assay [8] (compound 1.0 µM).

Regarding `CN(C)S(=O)(=O)Nc1ccc2ccc3ncc(-c4cnn(C)c4)cc3c(=O)c2c1`, the residual activity was found to be 93% in assay [10]; 76% in assay [11]; 108% in assay [12]; 109% in assay [13]; 103% in assay [14]; 80% in assay [15]. Also, the residual activity came to 92% in assay [16]; 101% in assay [17]; 77% in assay [18]; 123% in assay [19]; 100% in assay [20]; 94% in assay [21]. The residual activity in [22] came to 108%; in [23], 104%; in assay [24] it was 97%; in assay [25], 97%; in assay [26] it was 104%; in assay [27], 107%. Further, the residual activity in [28] came to 102%; in assay [29] it was 107%; in assay [30], 26%; in assay [31] it was 64%; in assay [32], 110%; in assay [33] it was 55%. The residual activity in assay [34] came to 113%; in assay [35] it was 103%; in assay [36], 17%; in assay [37], 7%.
